Experimental data published in US8110703B2, “Retinoid derivative and pharmaceutical composition and use thereof” (Anhui Medical University, priority 2008, dated 2012).
Marks after values point to notes of the source that are not given here.

Tests used:
Type in all cases: cell-based
A549 cells [1] = assay: Differentiation index: CEA secretory volume of A549 cells; conditions: A549 culture supernatant, 10 ug/ml, 3 d
Summary of the method: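 Cells exposed 3 days to compounds at 10 μg/ml, alongside untreated, DMSO/ethanol solvent and 10 μg/ml fenretinide controls. Culture supernatant taken after centrifugation; CEA content measured by kit using enzyme kinetics.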

liver cancer HepG2 cells = assay: MTT cell growth and proliferation experiment, HepG2; parameters: key to Inhibition Rate: (control OD570 − test OD570)/control OD570, as fraction; conditions: concentration not given; for Inhibition Rate: fraction
Summary of the method: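 After treatment, 20 ul/well of MTT (5 g/L) was added for 4 h at 37° C. The medium was then removed and 20 ul/well DMSO added to dissolve the crystals. Plates were shaken 10 min and read at 570 nm. Inhibition rate was (control OD570 − experimental OD570)/control OD570 × 100%, averaged over three experiments.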

HepG2 cells [2] = assay: γ-GT specific activity of HepG2 cells
HepG2 cells [3] = assay: AFP secretory volume of HepG2 cells; conditions: HepG2 cells
HepG2 cells [4] = assay: Cell cycle and apoptosis by flow cytometry, HepG2; conditions: HepG2, flow cytometry
A549 cells [5] = assay: Cell cycle and apoptosis by flow cytometry, A549; conditions: A549, 10 μg/ml, 3 days
Summary of the method: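 Cells were exposed to drug at 10 μg/ml for 3 days at 37 °C, alongside cell and solvent (1‰ DMSO, ethanol) controls. After fixation/permeabilization and PI staining for 30 min, 10000 cells per sample were analyzed in triplicate for G0-G1, S and G2-M fractions and the apoptotic fraction.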

A549 lung cancer cells = assay: MTT cell growth and proliferation experiment, A549; parameters: key to Inhibition Rate: (control OD570 − test OD570)/control OD570, as fraction; conditions: concentration not given; for Inhibition Rate: fraction
Summary of the method: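 Cells in DMEM/10% calf serum were treated with retinoic acid derivatives at 1, 5 and 10 ug/ml (DMSO <0.1%) for 3 d, then with MTT for 4 h at 37° C. Read-out was OD570 after DMSO solubilisation, giving % growth inhibition versus control wells. A time-course at 10 umol/L ran for 1, 2, 3 and 7 days.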

[6] = HepG2, MTT time gradient, in DMSO, 1 d
[7] = HepG2, MTT time gradient, in DMSO, 2 d
[8] = HepG2, MTT time gradient, in DMSO, 3 d
[9] = HepG2, MTT time gradient, in DMSO, 7 d
[10] = HepG2, MTT time gradient, in ethanol, 1 d
[11] = HepG2, MTT time gradient, in ethanol, 2 d
[12] = HepG2, MTT time gradient, in ethanol, 3 d
[13] = HepG2, MTT, 3 d, Table 3 control drug in DMSO
[14] = HepG2, MTT, 3 d, Table 3 control drug in ethanol
[15] = HepG2, Table 5 repeat MTT, 3 days, DMSO
[16] = HepG2, Table 5 repeat MTT, 3 days, ethanol
[17] = A549, MTT time gradient, in DMSO, 1 d
[18] = A549, MTT time gradient, in DMSO, 2 d
[19] = A549, MTT time gradient, in DMSO, 3 d
[20] = A549, MTT time gradient, in DMSO, 7 d
[21] = A549, MTT time gradient, in ethanol, 1 d
[22] = A549, MTT time gradient, in ethanol, 2 d
[23] = A549, MTT time gradient, in ethanol, 3 d
[24] = A549, MTT time gradient, in ethanol, 7 d
[25] = A549, MTT, 3 d, Table 1 control drug in DMSO
[26] = A549, MTT, 3 d, Table 1 control drug in ethanol

## CC1=C(/C=C/C(C)=C/C=C/C(C)=C/C(=O)Nc2ccc(O)cc2)C(C)(C)CCC1 [Fenretinide, reference compound]
A549 cells [1]; DMSO
  CEA: 4.5 µg/L
A549 cells [1]; ethanol
  CEA: 4.3 µg/L
Liver cancer HepG2 cells; [6]
  OD Value (x ± s): 1.61 ± 0.16
  Inhibition Rate: 0.09
Liver cancer HepG2 cells; [7]
  OD Value (x ± s): 1.37 ± 0.07
  Inhibition Rate: 0.19
Liver cancer HepG2 cells; [8]
  OD Value (x ± s): 1.07 ± 0.20
  Inhibition Rate: 0.13
Liver cancer HepG2 cells; [9]
  OD Value (x ± s): 1.17 ± 0.06
  Inhibition Rate: 0.14
Liver cancer HepG2 cells; [10]
  OD Value (x ± s): 1.67 ± 0.05
  Inhibition Rate: 0.05
Liver cancer HepG2 cells; [11]
  OD Value (x ± s): 1.31 ± 0.09
  Inhibition Rate: 0.22
Liver cancer HepG2 cells; [12]
  OD Value (x ± s): 1.06 ± 0.09
  Inhibition Rate: 0.14
Liver cancer HepG2 cells; [13]
  OD Value (x ± s): 1.27 ± 0.25
  Inhibition Rate: 0.25
Liver cancer HepG2 cells; [14]
  OD Value (x ± s): 1.28 ± 0.21
  Inhibition Rate: 0.24
Liver cancer HepG2 cells; [15]
  OD Value (x ± s): 1.469 ± 0.078
  Inhibition Rate: 0.322*
Liver cancer HepG2 cells; [16]
  OD Value (x ± s): 1.422 ± 0.123
  Inhibition Rate: 0.343*
HepG2 cells [2]; DMSO
  γ-GT: 66.6 ± 0.5 U/L
HepG2 cells [2]; ethanol
  γ-GT: 61.0 ± 1.0 U/L
HepG2 cells [3]; DMSO
  AFP: 15.1 µg/L
HepG2 cells [3]; ethanol
  AFP: 14.9 µg/L
HepG2 cells [4]; in DMSO
  Apoptosis Rate (%): 5.71%
  G0-G1 (%): 67.3%
  G2-M (%): 7.64%
  S %: 19.8%
HepG2 cells [4]; in ethanol
  Apoptosis Rate (%): 10.6%
  G0-G1 (%): 60.0%
  G2-M (%): 5.69%
  S %: 24.1%
A549 cells [5]; in DMSO
  Apoptosis Rate (%): 29.3%
  G0-G1 (%): 47.2%
  G2-M (%): 2.09%
  S %: 22.2%
A549 cells [5]; in ethanol
  Apoptosis Rate (%): 14.0%
  G0-G1 (%): 59.3%
  G2-M (%): 2.63%
  S %: 24.5%
A549 lung cancer cells; [17]
  OD Value (x ± s): 0.883 ± 0.062
  Inhibition Rate: 0.037
A549 lung cancer cells; [18]
  OD Value (x ± s): 1.360 ± 0.052
  Inhibition Rate: 0.070
A549 lung cancer cells; [19]
  OD Value (x ± s): 0.845 ± 0.034
  Inhibition Rate: 0.089
A549 lung cancer cells; [20]
  OD Value (x ± s): 1.835 ± 0.030
  Inhibition Rate: 0.115
A549 lung cancer cells; [21]
  OD Value (x ± s): 0.887 ± 0.057
  Inhibition Rate: 0.033
A549 lung cancer cells; [22]
  OD Value (x ± s): 1.333 ± 0.046
  Inhibition Rate: 0.089
A549 lung cancer cells; [23]
  OD Value (x ± s): 0.836 ± 0.034
  Inhibition Rate: 0.099
A549 lung cancer cells; [24]
  OD Value (x ± s): 1.851 ± 0.030
  Inhibition Rate: 0.108
A549 lung cancer cells; [25]
  OD Value (x ± s): 1.724 ± 0.080
  Inhibition Rate: 0.076
A549 lung cancer cells; [26]
  OD Value (x ± s): 1.710 ± 0.056
  Inhibition Rate: 0.083
